Assays:
[1] = system: pancreatic acini; experiment: amylase release from pancreatic acini (Phadebas); assay type: cell-based, rat; settings: for inhibition of amylase secretion stimulated by CCK-8 and TPA / effect on basal amylase release: Cytochalasin D 10 µM or Paclitaxel 5 µM; for inhibition of amylase secretion stimulated by CCK-8 and TPA: 4 h, CCK-8 0.3 and 100 nM; for inhibition of amylase secretion stimulated by CCK-8 and TPA / increase in amylase release: 30 min; for effect on basal amylase release: pancreatic acini (Figure 13A)
Protocol: Pancreatic acini preparations were obtained by collagenase digestion as previously described ([Bissonnette et al., 1984]; [Sato et al., 1989]; [Ramos-Alvarez and Jensen, 2018]). […] Isolated acini and CCK1-R/Panc-1 cells (M&M 2.2.1) were also preincubated with two SSH1 inhibitors, D3 (25 μM, 1 h) ([Li et al., 2015]) or SE (50 μM, 3 h for acini; 24 h for CCK1-R/Panc-1 cells) ([Lee et al., 2017]). After preincubation, 1 mL aliquots of dispersed acini were incubated at 37°C for 3–15 min with CCK-8 (0.3 nM or 100 nM), for 5–15 min with TPA (1 µM) or without stimulants, used as control. Cells were lysed in lysis buffer (50 mM Tris/HCl pH 7.5, 150 mM NaCl, 1% Triton X-100, 1% deoxycholate, 0.1% sodium azide, 1 mM EGTA, 0.4 mM EDTA, 0.2 mM sodium orthovanadate, 1 mM PMSF, and one protease inhibitor tablet per 10 mL). After sonication, lysates were centrifuged at 10,000×g for 15 min at 4°C and protein concentration was measured using the Bio-Rad protein assay reagent. Finally, cells were processed as below for Western blotting.
Amylase release was performed as described previously ([Sato et al., 1989]; [Ramos-Alvarez and Jensen, 2018]). Amylase activity was determined after 30 min incubation using the Phadebas reagent and was expressed as percentage of the total cellular amylase released into the extracellular medium during the incubation ([Ramos-Alvarez and Jensen, 2018]).
FIGURE 13 Effect of two cofilin inhibitors, Cytochalasin D or Paclitaxel, (A, B), or Cofilin siRNA (C), on the ability of CCK/TPA/A71378-stimulated amylase release form pancreatic acini (A) or AR42J cells (B, C). In (A, B) pancreatic acini and AR42J cells were incubated in the absence or presence of Cytochalasin D (10 µM) or Paclitaxel (5 µM) for 4 h and then incubated with no additions (control) or CCK-8 (0.03, 0.3, 1 and 100 nM), TPA (1 µM) or A71378 (0.03 and 1 nM) for 30 min and then lysed. In (B, C) AR42J cells were treated with Dexamethasone (100 nM) for 72 h, and in (C) AR42J cells were transfected with siRNA Non-targeting Control and siRNA against cofilin for 48 h, and then incubated with no addition (control) or CCK-8 (0.03 and 1 nM) and A71378 (0.03 and 1 nM) for 30 min. Amylase release, expressed as percent of cellular total amylase secreted, was determined after 30 min incubation. Means ± S.E. of at least 3 independent experiments. N.S., No significant.

[2] = system: cofilin (pS3) in rat pancreatic acini; experiment: cofilin activation (phospho-pS3 cofilin Western blot) in isolated rat pancreatic acini; assay type: cell-based; settings: for phosphorylation levels of cofilin with CCK-8 or TPA after cofilin inhibitor / inhibition of cofilin activation stimulated by CCK-8 or TPA: Cytochalasin D 10 µM or Paclitaxel 5 µM, 3 h; for phosphorylation levels of cofilin with CCK-8 or TPA after cofilin inhibitor: CCK-8 0.3 and 100 nM; for phosphorylation levels of cofilin with CCK-8 or TPA after cofilin inhibitor / time of return of cofilin phosphorylation to original basal level: TPA 1 µM; for inhibition of cofilin activation stimulated by CCK-8 or TPA: CCK-8 0.3 or 100 nM 3 min, TPA 1 µM 5 min; for time of return of cofilin phosphorylation to original basal level: CCK-8 0.3 or 100 nM
Protocol: Pancreatic acini preparations were obtained by collagenase digestion as previously described ([Bissonnette et al., 1984]; [Sato et al., 1989]; [Ramos-Alvarez and Jensen, 2018]). After collagenase digestion, dispersed acini were preincubated with different inhibitors in standard incubation solution ([Ramos-Alvarez and Jensen, 2018]; [Ramos-Ãlvarez et al., 2020]) for 3 h at 37°C under conditions specific for PKD/PKC, Src, PI3K, MAPKs, SSH1, LIMK, cofilin, other phosphatases and PAK4 inhibitors, as described previously ([Ramos-Alvarez and Jensen, 2018]; [Ramos-Ãlvarez et al., 2020]). Isolated acini and CCK1-R/Panc-1 cells (M&M 2.2.1) were also preincubated with two SSH1 inhibitors, D3 (25 μM, 1 h) ([Li et al., 2015]) or SE (50 μM, 3 h for acini; 24 h for CCK1-R/Panc-1 cells) ([Lee et al., 2017]). After preincubation, 1 mL aliquots of dispersed acini were incubated at 37°C for 3–15 min with CCK-8 (0.3 nM or 100 nM), for 5–15 min with TPA (1 µM) or without stimulants, used as control. Cells were lysed in lysis buffer (50 mM Tris/HCl pH 7.5, 150 mM NaCl, 1% Triton X-100, 1% deoxycholate, 0.1% sodium azide, 1 mM EGTA, 0.4 mM EDTA, 0.2 mM sodium orthovanadate, 1 mM PMSF, and one protease inhibitor tablet per 10 mL). After sonication, lysates were centrifuged at 10,000×g for 15 min at 4°C and protein concentration was measured using the Bio-Rad protein assay reagent. Finally, cells were processed as below for Western blotting.
Both concentrations of CCK-8 were used because CCK-8 is reported to have different responses with physiological and supraphysiological concentrations contributing to physiological and pathophysiological processes such as pancreatitis ([Dufresne et al., 2006]).
Western blotting and immunoprecipitation were performed as described previously ([Ramos-Alvarez and Jensen, 2018]). Whole cell lysates were subjected to SDS-PAGE using 4%–20% Tris–Glycine gels. […] Finally, membranes were then washed again twice in blocking buffer for 4 min, twice in washing buffer for 4 min, incubated for 4 min with chemiluminescence detection reagents. The intensity of the protein bands was measured using GeneTools software from Syngene, which were assessed in the linear detection range.
All experiments were performed at least 3 times. Data are presented as mean ± SEM and were analyzed with the non-parametric Kruskal–Wallis analysis (data was not normally distributed) and the Dunn’s multiple comparison test using the GraphPad Prism 8.0 software. P values < 0.05 were considered significant.
(A) Isolated pancreatic acini were incubated in the absence or presence of CCK-8 (100 nM), carbachol (1 μM), bombesin (1 nM), secretin (1 nM) or VIP (1 nM) for 1 min and then lysed. (B) Isolated pancreatic acini were incubated in the absence or presence of CCK-8 and CCK-JMV (at the indicate concentrations) for 3 min and then lysed. Western blots were analyzed using anti-pS3 cofilin, which mediates the activation state of cofilin. Bands were visualized using chemiluminescence and quantified by densitometry.

Molecule	inhibition of amylase secretion stimulated by CCK-8 and TPA ([1]; TPA 1 µM)	effect on basal amylase release [1]	phosphorylation levels of cofilin with CCK-8 or TPA after cofilin inhibitor [2]	inhibition of cofilin activation stimulated by CCK-8 or TPA [2]	time of return of cofilin phosphorylation to original basal level [2] [min]	further results
C=C1[C@@H](C)[C@H]2[C@H](Cc3ccccc3)NC(=O)[C@]23[C@H](OC(C)=O)/C=C/[C@@](C)(O)C(=O)[C@@H](C)C/C=C/[C@H]3[C@@H]1O [Cytochalasin D]	completely inhibited	Neither of these two cofilin inhibitors influenced basal amylase release	significant increase in phosphorylation levels of cofilin	completely inhibited		
COOH-terminal octapeptide of cholecystokinin [CCK-8]					60	increase in amylase release ([1]; CCK-8 0.3 nM): 207%; effect on cofilin phosphorylation (pS3) ([2]; 1 min, CCK-8 100 nM, carbachol 1 μM, bombesin 1 nM, secretin 1 nM or VIP 1 nM, n at least 3): rapidly decreased cofilin phosphorylation; concentration with detectible decrease in cofilin phosphorylation ([2]; 3 min): 1 pM; maximal dephosphorylation (i.e., activation) of cofilin ([2]; at 1 nM, 3 min): 62%; share of CCK-8 stimulation of cofilin activation mediated by the high-affinity state CCK1 receptor ([2]; from comparison with CCK-JMV): 58%; share of CCK-8 stimulation of cofilin activation mediated by the low affinity CCK1 receptor state ([2]; from comparison with CCK-JMV): 42%; EC50 ([2]; pS3 cofilin, 3 min incubation, at least 3 experiments, mean ± SEM, read-out: half-maximal effect (EC50) for decrease of cofilin phosphorylation): 1.8 ± 0.1 pM
CC(=O)O[C@H]1C(=O)[C@@]2(C)[C@H]([C@H](OC(=O)c3ccccc3)[C@]3(O)C[C@H](OC(=O)[C@H](O)[C@@H](NC(=O)c4ccccc4)c4ccccc4)C(C)=C1C3(C)C)[C@]1(OC(C)=O)CO[C@@H]1C[C@@H]2O [Paclitaxel]	completely inhibited	Neither of these two cofilin inhibitors influenced basal amylase release	significant increase in phosphorylation levels of cofilin	completely inhibited		
CCCCCCCCCCCCCC(=O)O[C@@H]1[C@@H](C)[C@@]2(O)[C@@H](C=C(CO)C[C@]3(O)C(=O)C(C)=C[C@@H]23)[C@H]2C(C)(C)[C@]12OC(C)=O [TPA, 12-O-tetradecanoylphobol-13-acetate]					60	increase in amylase release ([1]; TPA 1 µM): 278%
